Measurements from PubChem BioAssay AID1963437 (Molecular Pharmacology Branch, DTP, NCI, 2024).
“And” between values parts separate entries of the source, which are not always exact repeats. Equal values may be shown once.

Test system: OVCAR-8 complex spheroid, growth inhibition
Assay: Anticancer human tumor OVCAR-8 cell line growth inhibition [Asc];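 further: spheroids exposed to agents for 7 days before readout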;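 on viability, T/C: percent viability relative to DMSO vehicle wells taken as 100%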
Conditions: for viability, T/C: stronger effect = lower value; active means viability on the fitted dose curve at most 10% of control; inactive means the rest
Procedure: Multicellular complex tumor spheroid response to apoptosis pathway targeting inhibitors Alrizomadlin, Pelcitoclax, and Dasminapant in combination with a variety of drugs and investigational agents in selected tumor cell lines
The MDM2 inhibitor alrizomadlin, the Bcl-2/Bcl-xL inhibitor pelcitoclax, and the IAPs inhibitor dasminapant were evaluated both individually and in combination with standard of care and investigational anticancer small molecules within a complex spheroid model of solid tumors. . Complex spheroids include a stromal component modeled by human endothelial cells (HUVEC) and fibroblasts modeled by human mesenchymal stem cells (MSCs). The concentration ranges selected for each drug and investigational agent were based upon clinically achievable concentrations if the clinical Cmax of the agent was known.
Compounds. The drugs and investigational agents: alrizomadlin (APG-115; NSC831270), pelcitoclax (APG-1252; NSC835773), dasminapant (APG-1387;NSC834197), TAK-243 (NSC785004), copanlisib (NSC809693), olaparib (NSC753686), talazoparib (NSC767125), cobimetinib (NSC 768068), eltanexor (KPT-8602, NSC 794443), abemaciclib (NSC 768073), sotorasib (NSC818433), adagrasib (NSC 831453), MRTX-1133 (NSC 836407), Iadademestat (ORY1001, NSC 806812), and RMC-4630 (NSC839698), were obtained from the NCI Developmental Therapeutics Program Chemical Repository. The FDA-approved anticancer drug set is available from the Developmental Therapeutics Program at https://dtp.cancer.gov/organization/dscb/obtaining/available plates.htm. […] The stock solutions were prepared in dimethyl sulfoxide (DMSO, Sigma-Aldrich, St. Louis, MO, cat. D2650) at 800-fold the tested concentration and stored at -70 degrees C prior to their use. All drugs and investigational agents were tested over a range starting from a high concentration at or near the clinical Cmax and decreasing in half-log increments. If the clinical Cmax for an agent had not been determined, the highest concentration tested was 10 microM.
The patient-derived cancer (PDC) cell lines include five colon adenocarcinomas: 186277-243-T-J2-PDC, 616215-338-R-J1-PDC, 439559-082-T-J2-PDC, 463943-066-T-J2-PDC, and 519858-162-T-J1-PDC; three pancreatic carcinomas: 323965-272-R-J2-PDC, 521955-158-R6-J3-PDC, and 521955-158-R2-J5-PDC; two uterine sarcomas: 327498-152-R-J2-PDC and 993429-296-R-J1-PDC; two rhabdomyosarcomas: 755483-174-R-J1-PDC and 772245-204-R-J1-PDC; two soft tissue sarcomas: 126254-015-R-J1-PDC and 494315-158-R-J1-PDC; two malignant fibrous histiocytomas: 317291-083-R-J1-PDC and 596521-263-R-J1-PDC; two breast carcinomas: 171881-019-R-J1-PDC and 885512-296-R-J2-PDC; and one ovarian carcinoma: 6556581-035-R-J-PDC were obtained from the NCI PDMR, (https://pdmr.cancer.gov). The established cell lines HSSY-2 synovial sarcoma (RRID:CVCL 8719), SYO-1 synovial sarcoma (RRID:CVCL_7146), MPNST malignant peripheral neural sheath tumor were obtained from the Sloan Kettering Institute. The following established cell lines were purchased from the American Type Culture Collection (ATCC, Manassas, VA), Sor the received from the NCI repository:, PANC-1 pancreatic carcinoma (CRL-1469, RRID:CVCL_0480), OVCAR-5 ovarian carcinoma (RRID:CVCL_1628), OVCAR-8 ovarian carcinoma (RRID:CVCL_1629), , MCF-7 breast carcinoma (CRL-12584, RRID:CVCL_0031), MDA-MB-231 breast carcinoma (CRL-12532, RRID:CVCL_0062), NCI-H1876 small cell lung carcinoma (CRL-5902, RRID:CVCL_1503), NCI-H510A small cell lung carcinoma (HTB-184, RRID:CVCL_1565), NCI-H1417 (CRL-5869, RRID:CVCL_1469), and NCI-H196 small cell lung carcinoma (CRL-5823, RRID:CVCL_1509). Dr. Peter Houghton (Greehey Children's Cancer Research Institute, University of Texas Health Science Center, San Antonio, TX) provided Rh-18 rhabdomyosarcoma (RRID:CVCL_1659). Pooled donor human umbilical vein endothelial cells (HUVEC, Lonza, cat. CC-2519) and human mesenchymal stem cells (hMSC, Lonza, cat. PT-2501) were purchased from Lonza (Walkersville, MD).
Cell Culture. […]

[1] = curve of first compound, second compound 0.0316 µM
[2] = curve of first compound, second compound 0.1 µM
[3] = curve of first compound, second compound 0.316 µM
[4] = curve of first compound, second compound 1 µM
[5] = second compound 0.0316 µM, first compound 0.00316 µM
[6] = second compound 0.0316 µM, first compound 0.01 µM
[7] = second compound 0.0316 µM, first compound 0.0316 µM
[8] = second compound 0.0316 µM, first compound 0.1 µM
[9] = second compound 0.0316 µM, first compound 0.316 µM
[10] = second compound 0.0316 µM, first compound 1 µM
[11] = second compound 0.1 µM, first compound 0.00316 µM
[12] = second compound 0.1 µM, first compound 0.01 µM
[13] = second compound 0.1 µM, first compound 0.0316 µM
[14] = second compound 0.1 µM, first compound 0.1 µM
[15] = second compound 0.1 µM, first compound 0.316 µM
[16] = second compound 0.1 µM, first compound 1 µM
[17] = second compound 0.316 µM, first compound 0.00316 µM
[18] = second compound 0.316 µM, first compound 0.01 µM
[19] = second compound 0.316 µM, first compound 0.0316 µM
[20] = second compound 0.316 µM, first compound 0.1 µM
[21] = second compound 0.316 µM, first compound 0.316 µM
[22] = second compound 0.316 µM, first compound 1 µM
[23] = second compound 1 µM, first compound 0.00316 µM
[24] = second compound 1 µM, first compound 0.01 µM
[25] = second compound 1 µM, first compound 0.0316 µM
[26] = second compound 1 µM, first compound 0.1 µM
[27] = second compound 1 µM, first compound 0.316 µM
[28] = second compound 1 µM, first compound 1 µM

COc1c(OCCCN2CCOCC2)ccc2c3n(c(=NC(=O)c4cnc(N)nc4)nc12)CCN3 + CNC(C)C(=O)NC1CN(S(=O)(=O)c2cccc(S(=O)(=O)N3CCC4CCC(C(=O)NC(c5ccccc5)c5ccccc5)N4C(=O)C(NC(=O)C(C)NC)C3)c2)CCC2CCC(C(=O)NC(c3ccccc3)c3ccccc3)N2C1=O
inactive: viability, T/C (second compound 0.00316 µM, first compound 0.00316 µM) 110% | viability, T/C (second compound 0.00316 µM, first compound 0.01 µM) 94.7% | viability, T/C (second compound 0.00316 µM, first compound 0.0316 µM) 131% | viability, T/C (second compound 0.00316 µM, first compound 0.1 µM) 137% | viability, T/C (second compound 0.00316 µM, first compound 0.316 µM) 126% | viability, T/C (second compound 0.00316 µM, first compound 1 µM) 73.1% | viability, T/C (second compound 0.01 µM, first compound 0.00316 µM) 99.5% | viability, T/C (second compound 0.01 µM, first compound 0.01 µM) 105% | viability, T/C (second compound 0.01 µM, first compound 0.0316 µM) 113% | viability, T/C (second compound 0.01 µM, first compound 0.1 µM) 149% | viability, T/C (second compound 0.01 µM, first compound 0.316 µM) 129% | viability, T/C (second compound 0.01 µM, first compound 1 µM) 64.4% | viability, T/C [5] 99.6% | viability, T/C [6] 92.7% | viability, T/C [7] 107% | viability, T/C [8] 133% | viability, T/C [9] 135% | viability, T/C [10] 44.7% | viability, T/C [11] 82.5% | viability, T/C [12] 92.9% | viability, T/C [13] 101% | viability, T/C [14] 115% | viability, T/C [15] 105% | viability, T/C [16] 31.6% | viability, T/C [17] 87.5% | viability, T/C [18] 77.3% | viability, T/C [19] 98.7% | viability, T/C [20] 113% | viability, T/C [21] 84.1% | viability, T/C [22] 16% | viability, T/C [23] 92.9% | viability, T/C [24] 90.4% | viability, T/C [25] 111% | viability, T/C [26] 92.5% | viability, T/C [27] 51.3%
> 1000 nM: IC50 (curve of first compound, second compound 0.00316 µM) | IC50 (curve of first compound, second compound 0.01 µM)
730 nM: IC50 [2]
active: viability, T/C [28] 4.42%
326 nM: IC50 [4]
915 nM: IC50 [1]
563 nM: IC50 [3]

CCN1CCN(Cc2ccc(Nc3ncc(F)c(-c4cc(F)c5nc(C)n(C(C)C)c5c4)n3)nc2)CC1 + Cc1c(S(C)(=O)=O)c(-c2cc(F)cc(N3CCN(c4ccc(NS(=O)(=O)c5ccc(NC(CCN6CCC(C(=O)OCCCP(=O)(O)O)CC6)CSc6ccccc6)c(S(=O)(=O)C(F)(F)F)c5)cc4)CC3)c2)c(-c2ccc(Cl)cc2)n1C(C)C
> 1000 nM: IC50 [1] | IC50 [2] | IC50 [3] | IC50 [4] | IC50 (curve of first compound, second compound 3.16 µM) | IC50 (curve of first compound, second compound 10 µM)
inactive: viability, T/C [5] 102% | viability, T/C [6] 96.1% | viability, T/C [7] 95.6% | viability, T/C [8] 98.2% | viability, T/C [9] 112% | viability, T/C [10] 128% | viability, T/C [11] 90.3% | viability, T/C [12] 87.8% | viability, T/C [13] 90.4% | viability, T/C [14] 101% | viability, T/C [15] 112% | viability, T/C [16] 118% | viability, T/C [17] 93.6% | viability, T/C [18] 97.5% | viability, T/C [19] 103% | viability, T/C [20] 107% | viability, T/C [21] 117% | viability, T/C [22] 121% | viability, T/C [23] 89.1% | viability, T/C [24] 105% | viability, T/C [25] 99.7% | viability, T/C [26] 107% | viability, T/C [27] 97.5% | viability, T/C [28] 122% | viability, T/C (second compound 3.16 µM, first compound 0.00316 µM) 108% | viability, T/C (second compound 3.16 µM, first compound 0.01 µM) 92.3% | viability, T/C (second compound 3.16 µM, first compound 0.0316 µM) 103% | viability, T/C (second compound 3.16 µM, first compound 0.1 µM) 89.7% | viability, T/C (second compound 3.16 µM, first compound 0.316 µM) 106% | viability, T/C (second compound 3.16 µM, first compound 1 µM) 95.4% | viability, T/C (second compound 10 µM, first compound 0.00316 µM) 105% | viability, T/C (second compound 10 µM, first compound 0.01 µM) 111% | viability, T/C (second compound 10 µM, first compound 0.0316 µM) 90.2% | viability, T/C (second compound 10 µM, first compound 0.1 µM) 116% | viability, T/C (second compound 10 µM, first compound 0.316 µM) 93.1% | viability, T/C (second compound 10 µM, first compound 1 µM) 109%

C=CC(=O)N1CCN(c2nc(=O)n(-c3c(C)ccnc3C(C)C)c3nc(-c4c(O)cccc4F)c(F)cc23)C(C)C1 (stereo unspecified)
inactive: viability, T/C (compound 0.0316 µM) 106% and 97.9% and 94.2% | viability, T/C (compound 0.1 µM) 102% and 109% and 80.9% | viability, T/C (compound 0.316 µM) 84.7% and 95.3% and 101% | viability, T/C (compound 1 µM) 98.6% and 95.9% and 99.3% | viability, T/C (compound 3.16 µM) 86.1% and 102% and 101% | viability, T/C (compound 10 µM) 108% and 99.7% and 96.6%
> 10000 nM: IC50 (curve of compound)
